Experimental data: patent publication US20030229053A1, “Compounds and methods for the treatment or prevention of flavivirus infections” (Shire BioChem Inc., priority 2001, published 2003)

These compounds were tested against recombinant HCV NS5B (Hepatitis C virus genotype 1b, UniProt P26663) (assay: biochemical). Conditions: flashplate, polyrA/biotinylated-oligo dT, 100 nM NS5B, 2 hrs at room temperature; read-out: RNA pol Assay 2 IC50 (μm).
Sequence of recombinant HCV NS5B (P26663 2420-3010 limits assumed): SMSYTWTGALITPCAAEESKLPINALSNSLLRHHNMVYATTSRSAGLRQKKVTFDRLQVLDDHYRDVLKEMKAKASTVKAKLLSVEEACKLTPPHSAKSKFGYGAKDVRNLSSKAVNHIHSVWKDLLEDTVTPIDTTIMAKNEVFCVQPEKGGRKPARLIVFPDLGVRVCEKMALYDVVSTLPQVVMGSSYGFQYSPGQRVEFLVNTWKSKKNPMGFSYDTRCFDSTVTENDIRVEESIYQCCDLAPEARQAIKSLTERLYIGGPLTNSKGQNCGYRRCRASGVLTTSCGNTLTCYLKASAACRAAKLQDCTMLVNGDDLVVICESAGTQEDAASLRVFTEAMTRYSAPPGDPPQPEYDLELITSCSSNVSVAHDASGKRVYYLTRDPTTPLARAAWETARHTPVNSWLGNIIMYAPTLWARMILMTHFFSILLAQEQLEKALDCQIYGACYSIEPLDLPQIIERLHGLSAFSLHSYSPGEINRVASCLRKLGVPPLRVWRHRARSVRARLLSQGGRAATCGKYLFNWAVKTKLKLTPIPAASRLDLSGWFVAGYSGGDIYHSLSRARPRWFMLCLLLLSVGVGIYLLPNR
Procedure: In vitro HCV RdRp Flashplate Scintillation Proximity Assay (Strep-Flash Assay) Used to Evaluate Analogues:
In brief, a 400 ng/μl polyrA solution (Amersham Pharmacia Biotech) was mixed volume-to-volume with 5′ biotin-oligo dT12 at 20 pmol/μl. The template and primers were denatured at 95 C for 5 minutes then incubated at 37 C for 10 minutes. Annealed template-primers were subsequently diluted in a Tris-HCl containing buffer and allowed to bind to streptavidin-coated flashplates overnight.
`CC(c1cccc(C#N)c1)N(C(=O)c1ccc(Cl)cc1Cl)[C@@H](Cc1ccccc1)C(=O)O` (stereo in doubt) [Compound #205, 2-[[1-(3-CYANO-PHENYL)-ETHYL]-(2,4-DICHLORO-BENZOYL)-AMINO]-3PHENYL-PROPIONIC ACID] was tested, and the IC50 was 5 to 20 µM.
Work on `O=C(O)C(Cc1ccccc1)N(Cc1cc(Cl)cc(Cl)c1)C(=O)c1ccc(Cl)cc1Cl` (stereo in doubt) [compound #142, (2s)-2-[(2,4-Dichloro-benzoyl)-(3,5-dichloro-benzyl)-amino]-3-phenyl-propionic acid] yielded an IC50 of under 5 µM.
Compound `O=C(O)C(Cc1ccccc1)N(Cc1ccsc1)C(=O)c1ccc(Cl)cc1Cl` (stereo in doubt) [compound #143, (2s)-2-[(2,4-Dichloro-benzoyl)-thiophen-3-ylmethyl-amino]-3-phenyl-propionic acid] has an IC50 of under 5 µM.
Compound `O=C(O)[C@H](Cc1ccccc1)N(C[C@H]1CCCN1)C(=O)c1ccc(Cl)cc1Cl` (stereo in doubt) [compound #168, d-2-[(2,4-Dichloro-benzoyl)-pyrrolidin-2-ylmethyl-amino]-3-phenyl-propionic acid] has an IC50 of 5 to 20 µM.
`CN(C(=O)c1ccc(Cl)cc1Cl)[C@H](Cc1ccc(Br)s1)C(=O)O` (stereo in doubt) [compound #169, 3-(5-Bromo-thiophen-2-yl)-2-[(2,4-dichloro-benzoyl)-methyl-amino]-propionic acid] was tested, and the IC50 was under 5 µM.
`CN(C(=O)c1ccc(Cl)cc1Cl)[C@H](Cc1ccc(-c2cc3ccccc3o2)cc1)C(=O)O` [Compound #29, 3-(4-Benzofuran-2-yl-phenyl)-2-[(2,4-dichloro-benzoyl)-methyl-amino]-propionic acid] gave an IC50 of 5 to 20 µM.
In the case of `O=C(O)[C@H](Cc1ccccc1)N(Cc1cccc([N+](=O)[O-])c1)C(=O)c1ccc(Cl)cc1Cl` [Compound #53, (2S)-2-[(2,4-Dichloro-benzoyl)-(3-nitro-benzyl)-amino]-3-phenyl-propionic acid], the IC50 is reported as under 5 µM.
In the case of `COC(=O)c1cccc(CN(C(=O)c2ccc(Cl)cc2Cl)[C@@H](Cc2ccccc2)C(=O)O)c1` [Compound #117, 3-{[(1-Carboxy-2-phenyl-ethyl)-(2,4-dichloro-benzoyl)-amino]-methyl}-benzoic acid methyl ester], the IC50 is reported as under 5 µM.
For `N#Cc1cccc(-c2ccc(CN(C(=O)c3ccc(Cl)cc3Cl)[C@@H](Cc3ccccc3)C(=O)O)o2)c1` [Compound #119, 2-[[5-(3-Cyano-phenyl)-furan-2-ylmethyl]-(2,4-dichloro-benzoyl)-amino]-3-phenyl-propionic acid], the IC50 was under 5 µM.
In the case of `Cc1ccc(C(=O)N(Cc2cc(-c3ccc(F)c(Cl)c3)cs2)[C@@H](Cc2ccccc2)C(=O)O)c(C)c1` [Compound #192, 2-[[4-(3-Chloro-4-fluoro-phenyl)-thiophen-2-ylmethyl]-(2,4-dimethyl-benzoyl)-amino]-3-phenyl-propionic acid], the IC50 is reported as under 5 µM.
In the case of `O=C(O)c1cccc(CN(C(=O)c2ccc(Cl)cc2Cl)[C@@H](Cc2ccccc2)C(=O)O)c1` [Compound #193, 3-{[(1-Carboxy-2-phenyl-ethyl)-(2,4-dichloro-benzoyl)-amino]-methyl}-benzoic acid], the IC50 is reported as under 5 µM.
With `Nc1cccc(CN(C(=O)c2ccc(Cl)cc2Cl)[C@@H](Cc2ccccc2)C(=O)O)c1` [Compound #194, 2-[(3-Amino-benzyl)-(2,4-dichloro-benzoyl)-amino]-3-phenyl-propionic acid] the IC50 was 5 to 20 µM.
For `O=C(O)[C@@H](Cc1ccccc1)N(Cc1ccccc1)C(=O)c1ccc(Cl)cc1Cl` [Compound #199, 2-[Benzyl-(2,4-dichloro-benzoyl)-amino]-3-phenyl-propionic acid], the IC50 was 5 to 20 µM.
Compound `O=C(O)C(Cc1ccccc1)N(Cc1cccc(-c2nn[nH]n2)c1)C(=O)c1ccc(Cl)cc1Cl` (stereo not drawn) [Compound #200, 2-{(2,4-DICHLORO-BENZOYL)-[3-(2H-TETRAZOL-5-YL)-BENZYL]-AMINO}-3-PHENYL-PROPIONIC ACID] has an IC50 of under 5 µM.
`O=C(O)[C@H](Cc1ccccc1)N(Cc1ccccc1[N+](=O)[O-])C(=O)c1ccc(Cl)cc1Cl` [Compound #201, 2-[(2,4-DICHLORO-BENZOYL)-(2-NITRO-BENZYL)-AMINO]-3-PHENYL-PROPIONIC ACID] gave an IC50 of 5 to 20 µM.
Compound `O=C(O)[C@H](Cc1ccccc1)N(Cc1ccc([N+](=O)[O-])cc1)C(=O)c1ccc(Cl)cc1Cl` [Compound #202, 2-[(2,4-DICHLORO-BENZOYL)-(4-NITRO-BENZYL)-AMINO]-3-PHENYL-PROPIONIC] has an IC50 of 5 to 20 µM.
With `N#Cc1ccccc1CN(C(=O)c1ccc(Cl)cc1Cl)[C@@H](Cc1ccccc1)C(=O)O` [Compound #203, 2-[(2-CYANO-BENZYL)-(2,4-DICHLORO-BENZOYL)-AMINO]-3-PHENYL-PROPIONIC ACID] the IC50 was 5 to 20 µM.
`N#Cc1ccc(CN(C(=O)c2ccc(Cl)cc2Cl)[C@@H](Cc2ccccc2)C(=O)O)cc1` [Compound #204, 2-[(4-CYANO-BENZYL)-(2,4-DICHLORO-BENZOYL)-AMINO]-3-PHENYL-PROPIONIC ACID] gave an IC50 of 5 to 20 µM.
`CS(=O)(=O)c1cccc(CN(C(=O)c2ccc(Cl)cc2Cl)[C@@H](Cc2ccccc2)C(=O)O)c1` [Compound #208, 2-[(2,4-DICHLORO-BENZOYL)-(3-METHANESULFONYL-BENZYL)-AMINO]-3-PHENYL-PROPIONIC ACID] was tested, and the IC50 was 5 to 20 µM.
`CC(=O)c1cccc(CN(C(=O)c2ccc(Cl)cc2Cl)[C@@H](Cc2ccccc2)C(=O)O)c1` [Compound #209, 2-[(3-ACETYL-BENZYL)-(2,4-DICHLORO-BENZOYL)-AMINO]-3-PHENYL-PROPIONIC ACID] gave an IC50 of under 5 µM.
`O=C(O)[C@H](Cc1ccccc1)N(Cc1ccc[n+]([O-])c1)C(=O)c1ccc(Cl)cc1Cl` [Compound #210, 2-[(2,4-DICHLORO-BENZOYL)-(1-OXY-PYRIDIN-3-YLMETHYL)-AMINO]-3-PHENYL-PROPIONIC ACID] showed an IC50 of under 5 µM.
`O=C(O)[C@H](Cc1ccccc1)N(Cc1ccc(-c2cccc(C(F)(F)F)c2)s1)C(=O)c1ccc(Cl)cc1Cl` [Compound #211, 2-{(2,4-Dichloro-benzoyl)-[5-(3-trifluoromethyl-phenyl)-thiophen-2-ylmethyl]-amino}-3-phenyl-propionic acid] showed an IC50 of 5 to 20 µM.

These compounds were tested against HCV NS5B RNA-dependent RNA polymerase (Hepatitis C virus genotype 1b, UniProt P26663) (assay: In vitro RNA-dependent RNA polymerase assay (Assay 1), polyA/oligo dT, TCA precipitation). Conditions: polyA/oligo dT template/primer, 200 ng NS5B, 2 h at 22° C.; read-out: RNA pol Assay 1 IC50 (μm).
Sequence of HCV NS5B RNA-dependent RNA polymerase (P26663 2420-3010 limits assumed): as above
Assay type: biochemical
Outline: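 Purified NS5B (200 ng) on annealed polyA/oligo dT15 in 20 mM Tris-HCl pH 7.5, 50 mM NaCl, 5 mM MgCl2, 1 mM DTT, 15 µM cold UTP plus [32P]-UTP, 2 h at 22°C. Product TCA-precipitated, filtered onto glass-fibre and counted by liquid scintillation.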
`O=C(O)[C@H](Cc1ccccc1)N(Cc1ccc(-c2ccc(Cl)s2)s1)C(=O)c1ccc(Cl)cc1Cl` [compound #128, (2s)-2-[(5′-Chloro-[2,2′]bithiophenyl-5-ylmethyl)-(2,4-dichloro-benzoyl)-amino]-3-phenyl-propionic acid] was tested, and the IC50 was under 5 µM.
Compound `O=C(O)[C@H](Cc1ccccc1)N(Cc1cc(-c2cc(F)cc(F)c2)cs1)C(=O)c1ccc(Cl)cc1Cl` [compound #129, (2s)-2-{(2,4-Dichloro-benzoyl)-[4-(3,5-difluoro-phenyl)-thiophen-2-ylmethyl]-amino}-3-phenyl-propionic acid] has an IC50 of under 5 µM.
`O=C(O)[C@H](Cc1ccccc1)N(Cc1cc(-c2cccc(F)c2)cs1)C(=O)c1ccc(Cl)cc1Cl` [compound #130, (2s)-2-{(2,4-Dichloro-benzoyl)-[4-(3-fluoro-phenyl)-thiophen-2-ylmethyl]-amino}-3-phenyl-propionic acid] showed an IC50 of under 5 µM.
`O=C(O)[C@H](Cc1ccccc1)N(Cc1ccc(-c2cccc(C(F)(F)F)c2)o1)C(=O)c1ccc(Cl)cc1I` [compound #131, (2s)-2-{(4-Chloro-2-iodo-benzoyl)-[5-(3-trifluoromethyl-phenyl)-furan-2-ylmethyl]-amino}-3-phenyl-propionic acid] was tested, and the IC50 was under 5 µM.
`O=C(O)[C@H](Cc1ccccc1)N(Cc1cc(-c2ccc(Cl)s2)cs1)C(=O)c1ccc(Cl)cc1Cl` [compound #133, (2s)-2-[(5-Chloro-[2,3′]bithiophenyl-5′-ylmethyl)-(2,4-dichloro-benzoyl)-amino]-3-phenyl-propionic acid] was tested, and the IC50 was under 5 µM.
Work on `COc1ccc(-c2ccc(CN(C(=O)c3ccc(Cl)cc3Cl)[C@@H](Cc3ccccc3)C(=O)O)o2)cc1` [compound #134, (2s)-2-{(2,4-Dichloro-benzoyl)-[5-(4-methoxy-phenyl)-furan-2-ylmethyl]-amino}-3-phenyl-propionic acid] yielded an IC50 of under 5 µM.
Work on `COc1ccc(-c2ccc(CN(C(=O)c3ccc(Cl)cc3Cl)[C@@H](Cc3ccccc3)C(=O)O)s2)cc1` [compound #135, (2s)-2-{(2,4-Dichloro-benzoyl)-[5-(4-methoxy-phenyl)-thiophen-2-ylmethyl]-amino}-3-phenyl-propionic acid] yielded an IC50 of under 5 µM.
With `COc1ccc(-c2csc(CN(C(=O)c3ccc(Cl)cc3Cl)[C@@H](Cc3ccccc3)C(=O)O)c2)cc1` [compound #136, (2s)-2-{(2,4-Dichloro-benzoyl)-[4-(4-methoxy-phenyl)-thiophen-2-ylmethyl]-amino}-3-phenyl-propionic acid] the IC50 was under 5 µM.
Compound `O=C(O)[C@H](Cc1ccccc1)N(Cc1ccc(-c2ccncc2)o1)C(=O)c1ccc(Cl)cc1Cl` [compound #137, (2s)-2-[(2,4-Dichloro-benzoyl)-(5-pyridin-4-yl-furan-2-ylmethyl)-amino]-3-phenyl-propionic acid] has an IC50 of under 5 µM.
`O=C(O)[C@H](Cc1ccccc1)N(Cc1ccc(-c2ccncc2)s1)C(=O)c1ccc(Cl)cc1Cl` [compound #138, (2s)-2-[(2,4-Dichloro-benzoyl)-(5-pyridin-4-yl-thiophen-2-ylmethyl)-amino]-3-phenyl-propionic acid] gave an IC50 of under 5 µM.
For `O=C(O)[C@H](Cc1ccccc1)N(Cc1cc(-c2ccncc2)cs1)C(=O)c1ccc(Cl)cc1Cl` [compound #139, (2s)-2-[(2,4-Dichloro-benzoyl)-(4-pyridin-4-yl-thiophen-2-ylmethyl)-amino]-3-phenyl-propionic acid], the IC50 was under 5 µM.
